Test results published in ChEMBL document CHEMBL1201862, “PubChem BioAssay data set” (2004).
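How tested: cells in 96-well plates exposed to compound for 48 hours at five concentrations. At the GI50, growth is halved.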 Calls of active or inactive are those of the source. Cut-off read from the data, not from the text of the source: active = GI50 up to about 1.1 µM and inactive = higher.

Key:
Assay in all cases: DTP human tumour cell line panel, 48 h
A498 = tested on: A498
NCI-H226 = tested on: NCI-H226
OVCAR-3 = tested on: OVCAR-3
CAKI-1 = tested on: CAKI-1
OVCAR-8 = tested on: OVCAR-8
SR = tested on: SR
Hs-578T = tested on: Hs-578T
HL-60 = tested on: HL-60
HOP-92 = tested on: HOP-92
HOP-62 = tested on: HOP-62
UACC-257 = tested on: UACC-257
SW-620 = tested on: SW-620
MDA-MB-435 = tested on: MDA-MB-435
MOLT-4 = tested on: MOLT-4
T47D = tested on: T47D
SF-268 = tested on: SF-268
SK-OV-3 = tested on: SK-OV-3
CCRF-CEM = tested on: CCRF-CEM
DU-145 = tested on: DU-145
MDA-N = tested on: MDA-N

Structure (SMILES)	GI50 (A498)	GI50 (NCI-H226)	GI50 (OVCAR-3)	GI50 (CAKI-1)	GI50 (OVCAR-8)	GI50 (SR)	GI50 (Hs-578T)	GI50 (HL-60)	GI50 (HOP-92)	GI50 (HOP-62)	GI50 (UACC-257)	GI50 (SW-620)	GI50 (MDA-MB-435)	GI50 (MOLT-4)	GI50 (T47D)	GI50 (SF-268)	GI50 (SK-OV-3)	GI50 (CCRF-CEM)	GI50 (DU-145)	GI50 (MDA-N)
O=C(O)c1ccc(Oc2nc3ccccc3s2)cc1	> 100 µM (inactive)	> 100 µM (inactive)	> 100 µM (inactive)	> 100 µM (inactive)	> 100 µM (inactive)	85.7 µM (inactive)	64.4 µM (inactive)	> 100 µM (inactive)	87.9 µM (inactive)	> 100 µM (inactive)	> 100 µM (inactive)	> 100 µM (inactive)	> 100 µM (inactive)	> 100 µM (inactive)	> 100 µM (inactive)	> 100 µM (inactive)	> 100 µM (inactive)	> 100 µM (inactive)	> 100 µM (inactive)	
COC(=O)c1cn(CCCC(=O)O)nn1		> 100 µM (inactive)		> 100 µM (inactive)	> 100 µM (inactive)		> 100 µM (inactive)		> 100 µM (inactive)	> 100 µM (inactive)	> 100 µM (inactive)	> 100 µM (inactive)	> 100 µM (inactive)	> 100 µM (inactive)	> 100 µM (inactive)	> 100 µM (inactive)		> 100 µM (inactive)	> 100 µM (inactive)	> 100 µM (inactive)
CCC(C)C(=O)OC1C(=O)OC2CC3C(C)=CC(=O)C(O)C3(C)C3C4(O)OCC23C1C(C)C4O (stereo not drawn)	0.514 µM (active)	< 0.016 µM (active)	< 0.0199 µM (active)	0.115 µM (active)	< 0.01 µM (active)		< 0.0202 µM (active)		0.0208 µM (active)	< 0.019 µM (active)	0.0223 µM (active)	0.0136 µM (active)	< 0.0124 µM (active)		< 0.0166 µM (active)	< 0.0188 µM (active)	0.392 µM (active)	< 0.0131 µM (active)	< 0.019 µM (active)	< 0.0169 µM (active)
COc1ccc(-c2cc(-c3ccncc3)nc(N)c2-c2ccc(F)cc2)cc1	46.3 µM (inactive)	46.1 µM (inactive)	27.9 µM (inactive)	32.3 µM (inactive)	41.3 µM (inactive)	4.19 µM (inactive)	> 100 µM (inactive)		83.4 µM (inactive)	45.4 µM (inactive)	24.2 µM (inactive)	9.18 µM (inactive)	21.2 µM (inactive)	73.3 µM (inactive)	80.9 µM (inactive)	44 µM (inactive)	95.9 µM (inactive)	> 100 µM (inactive)		
COc1ccc2cc(Oc3ccc(Cl)cc3)c(=O)oc2c1	93.5 µM (inactive)	> 100 µM (inactive)	> 100 µM (inactive)	> 100 µM (inactive)	> 100 µM (inactive)	> 100 µM (inactive)	> 100 µM (inactive)	> 100 µM (inactive)	> 100 µM (inactive)	50.1 µM (inactive)	> 100 µM (inactive)	> 100 µM (inactive)		> 100 µM (inactive)	> 100 µM (inactive)	50.8 µM (inactive)		> 100 µM (inactive)	> 100 µM (inactive)	> 100 µM (inactive)
CCN(CC)c1ccc2cc(C(=O)Nc3ccccc3OC)c(=N)oc2c1	31.3 µM (inactive)		43.2 µM (inactive)	23.7 µM (inactive)	3.61 µM (inactive)	5.16 µM (inactive)	22.1 µM (inactive)	7.5 µM (inactive)		12 µM (inactive)	40.8 µM (inactive)	8.67 µM (inactive)	34.2 µM (inactive)	3.24 µM (inactive)		8.15 µM (inactive)	72.3 µM (inactive)	2.89 µM (inactive)	28.2 µM (inactive)	
O=C(c1ccco1)N(Cc1cccnc1)C(=S)N(Cc1cccnc1)C(=O)c1ccco1	25.7 µM (inactive)	19.5 µM (inactive)	6.35 µM (inactive)	19.9 µM (inactive)	19.4 µM (inactive)	5.28 µM (inactive)	23.3 µM (inactive)	15.8 µM (inactive)	17.7 µM (inactive)	13.1 µM (inactive)	14 µM (inactive)	5 µM (inactive)	11.6 µM (inactive)	11 µM (inactive)	24.5 µM (inactive)	18.7 µM (inactive)	33.6 µM (inactive)	2.74 µM (inactive)	19.5 µM (inactive)	
O=C(c1ccco1)N(C(=O)N1CCC(c2ccccc2)CC1)c1ccccc1	94.8 µM (inactive)	31.7 µM (inactive)	47 µM (inactive)	> 100 µM (inactive)	40.7 µM (inactive)		60.4 µM (inactive)	19.3 µM (inactive)			38.9 µM (inactive)	> 100 µM (inactive)	35 µM (inactive)	17.7 µM (inactive)	21.4 µM (inactive)	99.3 µM (inactive)	81.5 µM (inactive)	26.5 µM (inactive)	83 µM (inactive)	42.5 µM (inactive)
N#CCCN(CCCN(C(=O)N(c1ccccc1)c1ccccc1)c1ccccc1)C(=O)Nc1ccccc1	> 100 µM (inactive)	> 100 µM (inactive)	> 100 µM (inactive)	> 100 µM (inactive)	21.5 µM (inactive)		67.3 µM (inactive)	8.91 µM (inactive)	> 100 µM (inactive)	> 100 µM (inactive)	74 µM (inactive)	> 100 µM (inactive)	> 100 µM (inactive)	11.5 µM (inactive)	64.9 µM (inactive)	> 100 µM (inactive)	> 100 µM (inactive)	15.9 µM (inactive)	> 100 µM (inactive)	> 100 µM (inactive)
O=[N+]([O-])c1ccc(/C=N\N=c2/ccc([N+](=O)[O-])c[nH]2)cc1		> 100 µM (inactive)	> 100 µM (inactive)		> 100 µM (inactive)		> 100 µM (inactive)	> 100 µM (inactive)	> 100 µM (inactive)	> 100 µM (inactive)	> 100 µM (inactive)	> 100 µM (inactive)	> 100 µM (inactive)	> 100 µM (inactive)	> 100 µM (inactive)	> 100 µM (inactive)	86.9 µM (inactive)	> 100 µM (inactive)	> 100 µM (inactive)	> 100 µM (inactive)
O=C(NC1CCN(Cc2ccccc2)CC1)c1ccccc1I	57 µM (inactive)	25.8 µM (inactive)	43.9 µM (inactive)	53.5 µM (inactive)	39.8 µM (inactive)	25.6 µM (inactive)	17.9 µM (inactive)	38.9 µM (inactive)	28.7 µM (inactive)	19.8 µM (inactive)	18.1 µM (inactive)	19.7 µM (inactive)	17.4 µM (inactive)	17 µM (inactive)	22.2 µM (inactive)	39.3 µM (inactive)	22.4 µM (inactive)	24.3 µM (inactive)	61.9 µM (inactive)	
